According to PMC3957892, “Antibiotic Streptolydigin Requires Noncatalytic Mg^2+ for Binding to RNA Polymerase” (Antimicrobial Agents and Chemotherapy, 2014):

Legend:
[1] = biological target: T1, WT Thermus aquaticus core RNAP (Thermus aquaticus, UniProt Q9KWU6+Q9KWU7); assay: GTP (NMP) incorporation in assembled elongation complex EC1, WT RNAP; format: biochemical; details: for Ki: 1 mM GTP incorporation, 40°C
T1 construct: made in house
Protocol: (§1) Recombinant wild-type (WT) and mutant Thermus aquaticus core RNAPs were constructed and purified as described previously ([25]).
(§2) Elongation complexes (ECs) were assembled with WT and mutant (H936A/R933A and M932A [E. coli numbering]) RNAPs as described previously ([18]) and placed in transcription buffer containing 40 mM KCl and 20 mM Tris (pH 7.9). Prior to complex assembly, RNA was ^32P labeled at the 5′ end by using [γ-^32P]ATP (PerkinElmer). All reactions were carried out at 40°C. Stl (Sigma) with or without 10 mM MgCl2 was added before the reactions for 10 min at 40°C. Elongation reactions were initiated by addition of 1 mM GTP or 1 mM GTP with 10 mM MgCl2; endonucleolytic cleavage reactions were initiated by the addition of 10 mM MgCl2. Reactions were stopped by the addition of formamide-containing buffer, and products were analyzed as described previously ([18]). Fast kinetics experiments were performed as described previously ([18]). The kinetics data that were described well by a single exponent were fitted into a single-exponent equation using the nonlinear regression procedure in SigmaPlot software. Plots were normalized to the predicted maximum, which was taken as 100. The rates were then fitted in a hyperbolic equation to determine the Ki[Stl]. When the kinetics was described by a double exponent, the predicted maxima of the fast fractions were used for the fit to determine the Stl concentration that inhibited half of the complexes (equivalent of the Ki).
In order to investigate the details of the effects of Stl on RNAP active center functioning, we used artificially assembled elongation complexes (ECs). These complexes are assembled with Thermus aquaticus RNAP, fully complementary synthetic template and nontemplate DNA oligonucleotides, and an RNA oligonucleotide (Fig. 1C and D). […] We analyzed the kinetics of nucleoside monophosphate (NMP) addition in the presence of different concentrations of Stl in the elongation complex EC1, containing a 13-nucleotide-long RNA (Fig. 1C). […]

[2] = biological target: T1, WT Thermus aquaticus core RNAP; assay: Intrinsic (endonucleolytic) cleavage / phosphodiester bond hydrolysis in elongation complex EC2, WT RNAP; format: biochemical
Protocol: as §1
as §2, with “When the kinetics was described by a double exponent, the predicted maxima of the fast fractions were used for the fit to determine the Stl concentration that inhibited half of the complexes (equivalent of the Ki).” left out

[3] = biological target: T2, Thermus aquaticus RNAP β′H936A/R933A mutant (Thermus aquaticus, UniProt Q9KWU6+Q9KWU7, H1242A/R1239A); assay: GTP incorporation in elongation complex, H936A/R933A mutant RNAP; format: biochemical
T2 construct: made in house
Protocol: as §1
as §2, with “When the kinetics was described by a double exponent, the predicted maxima of the fast fractions were used for the fit to determine the Stl concentration that inhibited half of the complexes (equivalent of the Ki).” left out

[4] = biological target: T3, Thermus aquaticus RNAP β′M932A mutant (Thermus aquaticus, UniProt Q9KWU6+Q9KWU7, M1238A); assay: GTP incorporation in elongation complex, M932A mutant RNAP; format: biochemical
T3 construct: made in house
Protocol: as §1
as §2, with “When the kinetics was described by a double exponent, the predicted maxima of the fast fractions were used for the fit to determine the Stl concentration that inhibited half of the complexes (equivalent of the Ki).” left out

[5] = Mg^2+ binding to Stl, titration followed by UV absorption spectrum; details: deduced from titration experiment (Fig. 2A), 20 mM HEPES buffer pH 8.0; read-out: Apparent affinity of Stl for Mg^2+
Protocol: The spectra of Stl were recorded using a UV160U UV-visible (UV-Vis) recording spectrophotometer (Shimadzu Scientific Instruments, Inc.) in a fused silica measuring cell in the presence of the indicated concentrations of the MgCl2 in 20 mM HEPES buffer (pH 8.0).
We attempted to directly visualize if Stl can bind Mg^2+. Stl has a distinct UV absorption spectrum.

eukaryotic RNAPs = tested on: eukaryotic RNAPs; parameters: method as in PMID 11124018, PMID 11297923, PMID 11839495; details: cited from earlier work
RNAP β′D792G = tested on: RNAP β′D792G; parameters: method as in PMID 7592585; details: cited from earlier work
E. coli RNAP β′N792D = tested on: E. coli RNAP β′N792D; parameters: method as in PMID 16167380; details: cited from earlier work
RNAP = tested on: RNAP; parameters: method as in PMID 791108; details: Stl analog lacking the acetamide group; cited from earlier work

Compound | Ki ([1]; Ki[Stl] (half-inhibitory concentration determined from the proportion of the fast fraction), Stl preincubated −Mg^2+) [µM] | Ki ([1]; Ki[Stl], Stl preincubated +Mg^2+ (10 mM MgCl2)) [µM] | Half-inhibitory concentration of Stl when preincubated with Mg^2+, times lower than when Mg^2+ was added together with NTP ([1]; NMP incorporation) [times] | Ki [2] [µM] | Concentration of Stl required to inhibit half of the ECs during hydrolysis, times lower than during NTP addition ([2]; WT RNAP, hydrolysis vs NTP addition, −Mg^2+ preincubation) [times] | Ki [3] [µM] | Half-inhibitory concentration of Stl for NMP incorporation, times lower than that for WT RNAP ([3]; β′H936A/R933A RNAP vs WT RNAP) [times] | Ki [4] [µM] | Half-inhibitory concentration of Stl for NMP incorporation, times lower than that for WT RNAP ([4]; β′M932A RNAP vs WT RNAP) [times] | Kd [5] [µM] | Inhibition of eukaryotic RNAPs (eukaryotic RNAPs) | Effect of mutation β′D792G on sensitivity to Stl (RNAP β′D792G) | Effect of β′N792D substitution in E. coli RNAP on sensitivity to Stl (E. coli RNAP β′N792D) | Inhibition of RNAP relative to Stl (RNAP)
CNC(=O)[C@@H](C)[C@H]1C(=O)/C(=C(O)/C=C/C(C)=C/[C@@H](C)[C@H]2O[C@@]3(C)O[C@H](C=C[C@@]34CO4)[C@@H]2C)C(=O)N1[C@@H]1CC[C@H](O)[C@H](C)O1 [Stl, streptolydigin] | 13.9 | 0.882 | ~15 | 1.83 | ~8 | 0.816 | 15 to 20 | 0.649 | 15 to 20 | ~1000 | does not inhibit | strong resistance | significant enhancement of the enzyme sensitivity | 
tirandamycin |  |  |  |  |  |  |  |  |  |  |  |  |  | significantly weaker inhibitor than Stl
